Laboratory results from US9283269B2, “Method for reducing the allergenicity of animal dander” (IMMUNOPATH PROFILE, INC., priority 1998, dated 2016).

How the values were obtained:
[1] = ionizing side chain of the amino acid residue; cited from earlier work
[2] = cited from earlier work; for absorption after oral administration: gastrointestinal tract
[3] = tested on: dermatitis and fungal infection of the toe nail; settings: 50% acetic acid, brief periods of application
Protocol: Ammoniated butyric acid is […]. […] The acetic acid represents the deaminated glycine in this subject composition can be applied one to seven days per week and can be applied multiple times in one day. The duration of application can range from 2 to 60 minutes (or any other chosen interval) per application.

breast cancer cells = assay: Breast cancer cell suspension in vitro treated with polysorbate 80; format: cell-based
Text: Parkinson's disease also has an abnormal protein alpha synuculein intracytoplasmic aggregate/inclusion. Lewy bodies instead of normal random coil repeat proteins structures, cancer with deficiency in HLB modulation and adequate surfactant required by DNA progress through normal rheologic flow required in mitosis with normal cellular and nuclear division and sharing of DNA genetic traits and the resultant formation of normal daughter cells. The darkly stained nuclear mitotic figures makes its appearance as an aggregate plaque or precipitate removed from the normal flow of nuclear function and the microcirculation of nuclear DNA genetic nuclear focus and originating cell division. Response to hydrophilic surfactant in vitro is supportive of this thesis (83 percent of the breast cancer cells were killed in 24 to 48 hours with exposure to 0.25 percent polysorbate 80, Tween 80). Again countering the poor solubility of the plaque-like mechanism disease which contributes to metabolization and the normal metabolic turnover of all cell tissue and organs brings about a disease-free therapeutic response. About one-third of these cancers are associated with inflammatory immunologic response T lymphocytic-plasma cell changes and are of poor prognosis. Response to HLB modulation towards a hydrophilic HLB has provided an 83 percent in-vitro encouraging response reported in other embodiment.
Successful anticancer therapeutic activity cancer tissue cell in vitro′ breast cancer cell suspension comparative trials with treatment with 0.25 percent to 0.5 percent polysorbate 80 (Mean 80) with 83 percent reduction in 24 to 48 hours of cancer cell mitochondrial activity after HLB modulation with tween 80, and 50 percent reduction in cancer cells' abnormal morphology and abnormal mitosis on cytopathologic review.

[4] = tested on: pediatric liver transplant recipients; settings: of 64 pediatric liver transplant recipients; cited from earlier work
[5] = uric acid crystals; cited from earlier work

Question: For `N=C(N)NCCC[C@H](N)C(=O)O` [Arg, arginine], which ΔH [1] is on record?
Answer: Its ΔH is 11.6 to 13 kcal/mol.

Question: For `N[C@@H](CC(=O)O)C(=O)O` [Asp, aspartic acid], which “pK of side chain” value [1] is on record?
Answer: The value was 4.2-4.5.

Question: With `N[C@@H](CS)C(=O)O` [Cys, cysteine] as the compound, how does the “pK of side chain” value [1] read?
Answer: Its value is 7.5-8.5.

Question: For `N[C@@H](CCC(=O)O)C(=O)O` [Glu, glutamic acid], which “pK of side chain” value [1] is on record?
Answer: The value was 4.3-4.6.

Question: Which “pK of side chain” value [1] does the source give for `N[C@@H](Cc1c[nH]cn1)C(=O)O` [His, histidine] here?
Answer: Its value is 6.2-6.5.

Question: And the ΔH [1]?
Answer: Its ΔH is 6.93 to 7.53 kcal/mol.

Question: With `COc1ccc2c(c1)c(CC(=O)O)c(C)n2C(=O)c1ccc(Cl)cc1` [Indomethacin] as the compound, how does the “steady-state concentrations in plasma” value ([2]; after long-term administration) read?
Answer: The value was “approximately 0.5 micrograms/ml”.

Question: And the “time to peak concentration in plasma” value ([2]; fasting subject, oral)?
Answer: The value was at most 2 h.

Question: What about the “absorption after oral administration” value [2] of the same compound?
Answer: The value was “rapidly and almost completely absorbed”.

Question: What about the “bound to plasma proteins” value ([2]; in vivo) of the same compound?
Answer: The value was 90%.

Question: What about the “converted by O-demethylation” value ([2]; inactive metabolites) of the same compound?
Answer: The value was “about 50%”.

Question: What about the “converted by conjugation with glucuronic acid” value ([2]; inactive metabolites) of the same compound?
Answer: The value was “about 10%”.

Question: And the “concentrations in plasma required for an anti-inflammatory effect” value ([2]; not definitely determined)?
Answer: The value was “less than 1 microgram per ml”.

Question: For `NCCCC[C@H](N)C(=O)O` [Lys, lysine], which “pK of side chain” value [1] is on record?
Answer: Its value is 9.8-10.4.

Question: What about the ΔH [1] of the same compound?
Answer: Its ΔH is 10 to 11.6 kcal/mol.

Question: With `O=C(O)c1cc(/N=N/c2ccc(S(=O)(=O)Nc3ccccn3)cc2)ccc1O` [Sulfasalazine, salicylazosulfapyridine] as the compound, how does the “absorption after oral administration” value [2] read?
Answer: Its value is “poorly absorbed”.

Question: Which “effect on dermatitis and fungal toe nail infection” value [3] does the source give for `CC(=O)O` [acetic acid] here?
Answer: The value was “dramatically reverse long-term dermatitis and, fungal infection of the toe nail”.

Question: With `CCCCCCCC/C=C\CCCCCCCC(=O)OCCOCC(OCCO)C1OCC(OCCO)C1OCCO` (stereo not drawn) [polysorbate 80] as the compound, how does the “breast cancer cells killed” value (breast cancer cells; 0.25 percent polysorbate 80, 24 to 48 hours) read?
Answer: Its value is 83%.

Question: What about the “reduction in cancer cells' abnormal morphology and abnormal mitosis on cytopathologic review” value (breast cancer cells; 0.25 percent to 0.5 percent polysorbate 80) of the same compound?
Answer: The value was 50%.

Question: And the “reduction of cancer cell mitochondrial activity” value (breast cancer cells; 0.25 percent to 0.5 percent polysorbate 80, 24 to 48 hours)?
Answer: The value was 83%.

Question: With `C=CC[C@@H]1/C=C(\C)C[C@H](C)C[C@H](OC)[C@H]2O[C@@](O)(C(=O)C(=O)N3CCCC[C@H]3C(=O)O[C@H](/C(C)=C/[C@@H]3CC[C@@H](O)[C@H](OC)C3)[C@H](C)[C@@H](O)CC1=O)[C@H](C)C[C@@H]2OC` [tacrolimus] as the compound, how does the “patients who experienced food allergies” value [4] read?
Answer: The value was 17%.

Question: And the “patients who experienced food allergies (number)” value [4]?
Answer: Its value is 11.

Question: What does the source list for `O=c1[nH]c(=O)c2[nH]c(=O)[nH]c2[nH]1` [uric acid]?
Answer: solubility in glycerine [5]: very soluble; solubility in water [5]: marked insolubility
